In patent US20240109917A1 (ACTELION PHARMACEUTICALS LTD, priority 2020, published 2024):

Molecular target: VEGFR2, unphosphorylated (Homo sapiens (Human), UniProt P35968)
Assay: VEGFR ADP GLO Assay
Type: biochemical

Chain of VEGFR2, unphosphorylated (P35968 20-1356): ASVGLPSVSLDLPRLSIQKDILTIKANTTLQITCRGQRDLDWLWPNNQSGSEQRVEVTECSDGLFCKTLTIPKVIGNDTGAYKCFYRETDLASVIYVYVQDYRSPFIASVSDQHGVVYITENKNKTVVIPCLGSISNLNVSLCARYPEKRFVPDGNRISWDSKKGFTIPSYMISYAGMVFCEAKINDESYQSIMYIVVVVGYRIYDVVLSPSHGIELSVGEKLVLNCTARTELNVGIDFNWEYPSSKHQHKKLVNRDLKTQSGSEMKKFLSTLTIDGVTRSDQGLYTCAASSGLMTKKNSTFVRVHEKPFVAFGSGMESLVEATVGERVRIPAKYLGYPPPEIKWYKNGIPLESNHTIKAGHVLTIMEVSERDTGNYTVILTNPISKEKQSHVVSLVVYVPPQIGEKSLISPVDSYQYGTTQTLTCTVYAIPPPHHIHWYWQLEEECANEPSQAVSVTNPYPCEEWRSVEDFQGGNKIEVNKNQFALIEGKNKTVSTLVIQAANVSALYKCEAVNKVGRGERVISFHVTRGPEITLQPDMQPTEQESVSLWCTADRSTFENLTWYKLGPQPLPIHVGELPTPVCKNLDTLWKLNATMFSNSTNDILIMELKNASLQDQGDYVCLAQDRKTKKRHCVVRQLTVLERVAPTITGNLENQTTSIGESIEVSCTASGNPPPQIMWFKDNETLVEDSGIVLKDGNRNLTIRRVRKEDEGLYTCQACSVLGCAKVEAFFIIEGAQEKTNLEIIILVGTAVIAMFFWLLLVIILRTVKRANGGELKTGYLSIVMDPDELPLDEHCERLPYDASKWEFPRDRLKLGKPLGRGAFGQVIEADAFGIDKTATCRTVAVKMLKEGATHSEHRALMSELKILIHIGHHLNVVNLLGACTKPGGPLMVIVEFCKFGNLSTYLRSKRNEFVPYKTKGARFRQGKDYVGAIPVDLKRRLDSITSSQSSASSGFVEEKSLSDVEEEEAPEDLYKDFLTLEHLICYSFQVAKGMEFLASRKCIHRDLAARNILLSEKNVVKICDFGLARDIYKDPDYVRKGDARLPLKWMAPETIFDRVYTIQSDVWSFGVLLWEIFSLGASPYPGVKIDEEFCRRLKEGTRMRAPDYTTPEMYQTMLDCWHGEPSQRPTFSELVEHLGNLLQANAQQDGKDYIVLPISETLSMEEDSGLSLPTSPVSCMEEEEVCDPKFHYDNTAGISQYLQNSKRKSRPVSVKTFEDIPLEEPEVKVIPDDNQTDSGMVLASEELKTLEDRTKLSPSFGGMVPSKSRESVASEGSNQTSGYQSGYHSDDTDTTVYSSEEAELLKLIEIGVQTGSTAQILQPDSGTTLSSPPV

SMILES	IC50 [µM]
COc1ncccc1-c1cn2ncc(C(=O)Nc3cc(NC(=O)CN4C[C@H](CO)OC(C)(C)C4)cnc3C)c2s1 [Example 379, (R)—N-(5-(2-(6-(hydroxymethyl)-2,2-dimethylmorpholino)acetamido)-2-methylpyridin-3-yl)-2-(2-methoxypyridin-3-yl)pyrazolo[5,1-b]thiazole-7-carboxamide]	> 2.5
COc1cnccc1-c1cn2ncc(C(=O)Nc3cc(NC(=O)CN4CC(C)(C)C4)cnc3C)c2s1 [Example 399, N-(5-(2-(3,3-dimethylazetidin-1-yl)acetamido)-2-methylpyridin-3-yl)-2-(3-methoxypyridin-4-yl)pyrazolo[5,1-b]thiazole-7-carboxamide]	4.77
COc1ncccc1-c1cn2ncc(C(=O)Nc3cc(NC(=O)CN4CC(C)(C)C4)cnc3C)c2s1 [Example 369, N-(5-(2-(3,3-dimethylazetidin-1-yl)acetamido)-2-methylpyridin-3-yl)-2-(2-methoxypyridin-3-yl)pyrazolo[5,1-b]thiazole-7-carboxamide]	> 7.5
COc1ncccc1-c1cn2ncc(C(=O)Nc3cc(NC(=O)CN4C[C@H](C)O[C@@H](C)C4)cnc3C)c2s1 (relative stereo) [Example 384, N-(5-(2-(trans-2,6-dimethylmorpholino)acetamido)-2-methylpyridin-3-yl)-2-(2-methoxypyridin-3-yl)pyrazolo[5,1-b]thiazole-7-carboxamide]	> 0.833
Cc1ncc(NC(=O)[C@@H]2CCCN2C(C)C)cc1NC(=O)c1cnn2cc(-c3cnn4c3OCCC4)sc12 [Example 346, (S)-2-(6,7-dihydro-5H-pyrazolo[5,1-b][1,3]oxazin-3-yl)-N-(5-(1-isopropylpyrrolidine-2-carboxamido)-2-methylpyridin-3-yl)pyrazolo[5,1-b]thiazole-7-carboxamide]	> 7.5
Cc1ncc(NC(=O)C2CN(C(C)C)C2)cc1NC(=O)c1cnn2cc(-c3cn(C)nc3C)sc12 [Example 354, 2-(1,3-dimethyl-1H-pyrazol-4-yl)-N-(5-(1-isopropylazetidine-3-carboxamido)-2-methylpyridin-3-yl)pyrazolo[5,1-b]thiazole-7-carboxamide]	> 7.5
COc1ncccc1-c1cn2ncc(C(=O)Nc3cc(NC(=O)CN4CC(C)(OC)C4)cnc3C)c2s1 [Example 396, N-(5-(2-(3-methoxy-3-methylazetidin-1-yl)acetamido)-2-methylpyridin-3-yl)-2-(2-methoxypyridin-3-yl)pyrazolo[5,1-b]thiazole-7-carboxamide]	> 7.5
COc1ncccc1-c1cn2ncc(C(=O)Nc3cc(NC(=O)CN4C[C@H](C)O[C@@H](C)C4)cnc3C)c2s1 (relative stereo) [Example 368, N-(5-(2-(trans-2,6-dimethylmorpholino)acetamido)-2-methylpyridin-3-yl)-2-(2-methoxypyridin-3-yl)pyrazolo[5,1-b]thiazole-7-carboxamide]	> 7.5
COc1cccc(-c2cn3ncc(C(=O)Nc4cc(NC(=O)CN5CC(C)(C)C5)cnc4C)c3s2)n1 [Example 394, N-(5-(2-(3,3-dimethylazetidin-1-yl)acetamido)-2-methylpyridin-3-yl)-2-(6-methoxypyridin-2-yl)pyrazolo[5,1-b]thiazole-7-carboxamide]	> 7.5
Cc1ncc(NC(=O)C2CN(C(C)C)C2)cc1NC(=O)c1cnn2cc(-c3cnn4c3OCCC4)sc12 [Example 348, 2-(6,7-dihydro-5H-pyrazolo[5,1-b][1,3]oxazin-3-yl)-N-(5-(1-isopropylazetidine-3-carboxamido)-2-methylpyridin-3-yl)pyrazolo[5,1-b]thiazole-7-carboxamide]	> 7.5
Cc1ncc(NC(=O)CN2CCC23CCC3)cc1NC(=O)c1cnn2cc(-c3ccnc(N4CCOCC4)c3)sc12 [Example 353, N-(5-(2-(1-azaspiro[3.3]heptan-1-yl)acetamido)-2-methylpyridin-3-yl)-2-(2-morpholinopyridin-4-yl)pyrazolo[5,1-b]thiazole-7-carboxamide]	> 7.5
COCCn1cc(-c2cn3ncc(C(=O)Nc4cc(NC(=O)CN5CCCC56CCC6)cnc4C)c3s2)cn1 [Example 332, N-(5-(2-(5-azaspiro[3.4]octan-5-yl)acetamido)-2-methylpyridin-3-yl)-2-(1-(2-methoxyethyl)-1H-pyrazol-4-yl)pyrazolo[5,1-b]thiazole-7-carboxamide]	> 7.5
COCCn1cc(-c2cn3ncc(C(=O)Nc4cc(NC(=O)CN5C[C@H]6CC[C@@H]5C6)cnc4C)c3s2)cn1 [Example 334, N-(5-(2-((1R,4S)-2-azabicyclo[2.2.1]heptan-2-yl)acetamido)-2-methylpyridin-3-yl)-2-(1-(2-methoxyethyl)-1H-pyrazol-4-yl)pyrazolo[5,1-b]thiazole-7-carboxamide]	> 7.5
Cc1ncc(NC(=O)CN2CC(C)(C)C2)cc1NC(=O)c1cnn2cc(-c3cncnc3C)sc12 [Example 398, N-(5-(2-(3,3-dimethylazetidin-1-yl)acetamido)-2-methylpyridin-3-yl)-2-(4-methylpyrimidin-5-yl)pyrazolo[5,1-b]thiazole-7-carboxamide]	> 7.5
COCCn1cc(-c2cn3ncc(C(=O)Nc4cc(NC(=O)[C@@H]5CCCN5C(C)C)cnc4C)c3s2)cn1 [Example 343, (S)—N-(5-(1-isopropylpyrrolidine-2-carboxamido)-2-methylpyridin-3-yl)-2-(1-(2-methoxyethyl)-1H-pyrazol-4-yl)pyrazolo[5,1-b]thiazole-7-carboxamide]	> 7.5
Cc1ncc(NC(=O)CN2C[C@H](C)O[C@@H](C)C2)cc1NC(=O)c1cnn2cc(-c3cnn4c3OCCC4)sc12 (relative stereo) [Example 375, 2-(6,7-dihydro-5H-pyrazolo[5,1-b][1,3]oxazin-3-yl)-N-(5-(2-(trans-2,6-dimethylmorpholino)acetamido)-2-methylpyridin-3-yl)pyrazolo[5,1-b]thiazole-7-carboxamide]	> 0.833
Cc1ncc(NC(=O)CN2C[C@H](C)O[C@@H](C)C2)cc1NC(=O)c1cnn2cc(-c3cnc(N)c(F)c3)sc12 (relative stereo) [Example 372, 2-(6-amino-5-fluoropyridin-3-yl)-N-(5-(2-(trans-2,6-dimethylmorpholino)acetamido)-2-methylpyridin-3-yl)pyrazolo[5,1-b]thiazole-7-carboxamide]	> 2.5
COc1ncccc1-c1cn2ncc(C(=O)Nc3cc(NC(=O)CN4C[C@@H](CO)OC(C)(C)C4)cnc3C)c2s1 [Example 380, (S)—N-(5-(2-(6-(hydroxymethyl)-2,2-dimethylmorpholino)acetamido)-2-methylpyridin-3-yl)-2-(2-methoxypyridin-3-yl)pyrazolo[5,1-b]thiazole-7-carboxamide]	> 2.5
Cc1ncc(NC(=O)C2CCN(C(C)C)C2)cc1NC(=O)c1cnn2cc(-c3cnn4c3OCCC4)sc12 (stereo not shown) [Example 350, 2-(6,7-dihydro-5H-pyrazolo[5,1-b][1,3]oxazin-3-yl)-N-(5-(1-isopropylpyrrolidine-3-carboxamido)-2-methylpyridin-3-yl)pyrazolo[5,1-b]thiazole-7-carboxamide]	6.35
COCCn1cc(-c2cn3ncc(C(=O)Nc4cc(NC(=O)CN5CCCC6(CC6)C5)cnc4C)c3s2)cn1 [Example 335, N-(5-(2-(5-azaspiro[2.5]octan-5-yl)acetamido)-2-methylpyridin-3-yl)-2-(1-(2-methoxyethyl)-1H-pyrazol-4-yl)pyrazolo[5,1-b]thiazole-7-carboxamide]	> 7.5
COc1ncccc1-c1cn2ncc(C(=O)Nc3cc(C(=O)NCCN4CC(C)(C)C4)cnc3C)c2s1 [Example 387, N-(5-((2-(3,3-dimethylazetidin-1-yl)ethyl)carbamoyl)-2-methylpyridin-3-yl)-2-(2-methoxypyridin-3-yl)pyrazolo[5,1-b]thiazole-7-carboxamide]	> 7.5
Cc1ncc(NC(=O)C2CCN(C(C)C)C2)cc1NC(=O)c1cnn2cc(-c3cn(C)nc3C)sc12 (stereo not shown) [Example 355, 2-(1,3-dimethyl-1H-pyrazol-4-yl)-N-(5-(1-isopropylpyrrolidine-3-carboxamido)-2-methylpyridin-3-yl)pyrazolo[5,1-b]thiazole-7-carboxamide]	> 7.5
Cc1ncc(NC(=O)C[C@H]2CCCN2C(C)C)cc1NC(=O)c1cnn2cc(-c3cnn4c3OCCC4)sc12 [Example 351, (R)-2-(6,7-dihydro-5H-pyrazolo[5,1-b][1,3]oxazin-3-yl)-N-(5-(2-(1-isopropylpyrrolidin-2-yl)acetamido)-2-methylpyridin-3-yl)pyrazolo[5,1-b]thiazole-7-carboxamide]	> 7.5
COc1ncccc1-c1cn2ncc(C(=O)Nc3cc(NC(=O)CN4CC(C)C4)cnc3C)c2s1 [Example 405, 2-(2-methoxypyridin-3-yl)-N-(2-methyl-5-(2-(3-methylazetidin-1-yl)acetamido)pyridin-3-yl)pyrazolo[5,1-b]thiazole-7-carboxamide]	6.66
Cc1ncc(NS(=O)(=O)CCN2CC3CCC2CC3)cc1NC(=O)c1cnn2cc(-c3cnn(C)c3)sc12 [Example 358, N-(5-((2-(2-azabicyclo[2.2.2]octan-2-yl)ethyl)sulfonamido)-2-methylpyridin-3-yl)-2-(1-methyl-1H-pyrazol-4-yl)pyrazolo[5,1-b]thiazole-7-carboxamide]	> 7.5
Cc1ncc(NC(=O)CN2C[C@@H](CO)O[C@@H](C)C2)cc1NC(=O)c1cnn2cc(-c3cnn(C)c3)sc12 (relative stereo) [Example 378, N-(5-(2-(cis-2-(hydroxymethyl)-6-methylmorpholino)acetamido)-2-methylpyridin-3-yl)-2-(1-methyl-1H-pyrazol-4-yl)pyrazolo[5,1-b]thiazole-7-carboxamide]	> 2.5
COc1ncccc1-c1cn2ncc(C(=O)Nc3cc(NC(=O)CN4CCC4)cnc3C)c2s1 [Example 397, N-(5-(2-(azetidin-1-yl)acetamido)-2-methylpyridin-3-yl)-2-(2-methoxypyridin-3-yl)pyrazolo[5,1-b]thiazole-7-carboxamide]	> 7.5
Cc1ncc(S(=O)(=O)NCCN2CCCC2(C)C)cc1NC(=O)c1cnn2cc(-c3cnn(C)c3)sc12 [Example 359, N-(5-(N-(2-(2,2-dimethylpyrrolidin-1-yl)ethyl)sulfamoyl)-2-methylpyridin-3-yl)-2-(1-methyl-1H-pyrazol-4-yl)pyrazolo[5,1-b]thiazole-7-carboxamide]	> 7.5
